Assay results from patent US20260231939A1, “ARTHROPOD CONTROL COMPOSITIONS” (Firmenich SA, priority 2022, published 2026).

Columns and labels:
Aedes aegypti = assay: Warm Body assay, mosquito landings on the baited warm body; format: in vivo
Experimental: (§1) The controlling effect according to the present invention was assessed using an adapted Warm Body assay as defined in Kröber T, Kessler S, Frei J, Bourquin M, Guerin P M. 2010. J Am Mosq Control Assoc. 26:381-386. In this in-vitro assay the number of mosquito landing on a warm body, simulating an attractive host treated with the tested stimuli, was measured in order to assess the repellence effect.
The published protocol has been adapted as the switch from Anopheles gambiae to Ae. aegypti led to a decrease of mosquitoes placed in the tested cage due to the size difference (i.e. 30 mosquitoes instead of 50) and to an increase of lighting since Ae. aegypti is a diurnal mosquitoes (i.e. 150 lux instead of 4 lux).
(§2) On the sandblasted glass Petri dish covering the warm body (28.3 cm^2), 100 μL of the compounds diluted at different concentrations in ethanol was applied. The number of mosquito landing on the warm body was counted for each stimulus. Number of landings on pure ethanol (solvent) control treatment was used to normalize the data and calculate the percentage of repellence.

Anopheles gambiae = assay: as above; format: in vivo; conditions: Warm Body assay, paired t-test, FIG. 4
Experimental: Anopheles gambiae is also a model organism as it is anthropophilic and transmits malaria.
as §1, with “effect. […]” for “effect.”
as §2

Ae. aegypti = assay: Arm-in-cage test on human volunteers; format: in vivo, Aedes aegypti; conditions: Arm-in-Cage, 20% in ethanol, paired t-test, FIG. 5
Experimental: (§3) The Arm in the box method was adapted from the WHO Guidelines for efficacy testing of mosquito repellents for human skin (WHO/CDS/NTD/WHOPES/2009.4) and/or based on EU biocide testing guidelines (Guidance on the Biocidal Products Regulation. Vol. II Efficacy—Assessment and Evaluation (Parts B+C), v. 4.0. December 2021). The readiness of 200 hungry female mosquitoes Ae. aegypti or 50 An. gambiae to probe is assessed by inserting the untreated arm of human volunteers into the cage (40×40×40 cm) for 30 seconds (negative control) in order to determine probing activity. Then, the product is applied onto the skin of the forearm of the human volunteer (1 mL per 600 cm^2) and after 5 minutes (Ae. aegypti) or 30 minutes (An. gambiae), this arm is inserted into the cage and exposed for 3 minutes. The assay take place in temperature (27±2° C.) and humidity (80±10% RH) regulated room on three different human volunteers.

An. gambiae = assay: Arm-in-cage test on human volunteers; format: in vivo, Anopheles gambiae; conditions: for Arm-in-cage repellence, mean of three volunteers: unsaturated δ-lactones at 20%
Experimental: as §3

Ixodes ricinus = assay: Warm Plate Assay for ticks

## CC=CCCC1CCCC(=O)O1 (stereo not drawn) [6-pent-3-enyloxan-2-one]
Aedes aegypti; Aedes aegypti, δ-lactones, 0.016 mg/mL, read-out: Percentage of repellence of mosquitoes landing on the warm body
  pest or weed control at 16 µg/mL: 20%
Aedes aegypti; Aedes aegypti, δ-lactones, 0.4 mg/mL, read-out: Percentage of repellence of mosquitoes landing on the warm body
  pest or weed control at 400 µg/mL: 98%
Aedes aegypti; Aedes aegypti, δ-lactones, 10 mg/mL, read-out: Percentage of repellence of mosquitoes landing on the warm body
  pest or weed control at 10000 µg/mL: 100%
Aedes aegypti; Warm Body assay, paired t-test where given
  repellence efficacy compared with the saturated counterpart: significantly more efficient
Anopheles gambiae
  repellence efficacy compared with the saturated counterpart: significantly more efficient
Ae. aegypti
  repellence efficacy compared with saturated 6-pentyloxan-2-one: more efficient
An. gambiae; 20% in ethanol
  time during which protection is 100%, i.e. no mosquito landing: 3 h
An. gambiae; 20% solution in ethanol
  time during which mosquito protection / repellence is >90%: 8 h
An. gambiae; 30 min
  Arm-in-cage repellence, mean of three volunteers: 100% ±
An. gambiae; 1 h
  Arm-in-cage repellence, mean of three volunteers: 100% ±
An. gambiae; 2 h
  Arm-in-cage repellence, mean of three volunteers: 100% ±
An. gambiae; 3 h
  Arm-in-cage repellence, mean of three volunteers: 100% ±
An. gambiae; 4 h
  Arm-in-cage repellence, mean of three volunteers: 99.0% ±
An. gambiae; 5 h
  Arm-in-cage repellence, mean of three volunteers: 98.4% ±
An. gambiae; 6 h
  Arm-in-cage repellence, mean of three volunteers: 98.3% ±
An. gambiae; 7 h
  Arm-in-cage repellence, mean of three volunteers: 94.9% ±
An. gambiae; 8 h
  Arm-in-cage repellence, mean of three volunteers: 94.7% ±
Ixodes ricinus; 0.40 mg/mL
  Percentage of repellence of ticks on the warm plate: 83%
Ixodes ricinus; 2 mg/mL
  Percentage of repellence of ticks on the warm plate: 100%
Ixodes ricinus; 10 mg/mL
  Percentage of repellence of ticks on the warm plate: 100%
Ixodes ricinus; in vivo
  lower dose at which 100% of repellent efficacy is already reached: 0.2%
